The compounds below were run against PIK3CA (human) (UniProt P42336) (assay: Assessment of PIK3CA Kinase Activity).
Sequence of PIK3CA (human) (P42336 whole entry, looked up): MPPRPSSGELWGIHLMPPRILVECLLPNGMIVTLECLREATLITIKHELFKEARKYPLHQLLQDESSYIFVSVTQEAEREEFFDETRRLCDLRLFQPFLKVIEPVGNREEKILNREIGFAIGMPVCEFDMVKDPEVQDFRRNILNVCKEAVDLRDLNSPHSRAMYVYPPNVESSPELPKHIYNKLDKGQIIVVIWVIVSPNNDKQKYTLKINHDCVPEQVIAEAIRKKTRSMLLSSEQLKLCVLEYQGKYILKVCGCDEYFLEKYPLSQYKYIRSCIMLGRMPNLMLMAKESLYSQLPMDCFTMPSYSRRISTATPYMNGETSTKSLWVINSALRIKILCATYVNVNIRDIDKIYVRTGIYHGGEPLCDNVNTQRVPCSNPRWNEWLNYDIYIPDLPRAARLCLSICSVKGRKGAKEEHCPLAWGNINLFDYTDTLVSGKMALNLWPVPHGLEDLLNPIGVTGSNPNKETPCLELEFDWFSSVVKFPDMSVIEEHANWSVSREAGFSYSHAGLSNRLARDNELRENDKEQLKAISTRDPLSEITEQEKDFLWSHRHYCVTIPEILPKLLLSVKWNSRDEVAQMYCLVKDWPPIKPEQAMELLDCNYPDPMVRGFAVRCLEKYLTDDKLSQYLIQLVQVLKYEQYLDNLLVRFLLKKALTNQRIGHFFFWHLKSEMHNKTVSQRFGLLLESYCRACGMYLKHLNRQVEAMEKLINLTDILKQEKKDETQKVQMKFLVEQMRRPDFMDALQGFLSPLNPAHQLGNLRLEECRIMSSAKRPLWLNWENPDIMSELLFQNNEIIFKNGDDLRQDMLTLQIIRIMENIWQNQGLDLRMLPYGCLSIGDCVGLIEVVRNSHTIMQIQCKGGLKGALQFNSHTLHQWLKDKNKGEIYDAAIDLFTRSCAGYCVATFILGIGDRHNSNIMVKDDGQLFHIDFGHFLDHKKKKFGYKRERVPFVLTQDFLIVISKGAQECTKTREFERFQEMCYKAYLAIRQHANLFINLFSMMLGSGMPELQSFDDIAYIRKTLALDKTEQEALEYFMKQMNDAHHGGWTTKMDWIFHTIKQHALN

IC50 | Compound
< 1000 nM | CN1CCN(C(=O)C2CCN(C(=O)c3nc4c(s3)CCOc3cc(-c5cn[nH]c5)ccc3-4)CC2)CC1
< 1000 nM | Cc1nn(C(C)C)c(=O)n1-c1nc2c(s1)CCOc1cc(-c3cnn(CC(C)(C)O)c3)ccc1-2
< 1000 nM | Fc1ccc(-n2ncnc2-c2cc3c(s2)-c2nc(NCCN4CCOCC4)ccc2OCC3)c(F)c1
< 1000 nM | CCN1[C@H](C)CN(c2ccc3c(n2)-c2sc(-c4ncnn4-c4ccc(F)cc4F)cc2CCO3)C[C@@H]1C
< 1000 nM | CC(C)n1ncnc1-c1nc2c(s1)CCOc1ccc(C3CCCC3)cc1-2
< 1000 nM | CN1CCN(c2ccc(-c3ccc4c(n3)-c3sc(-c5ncnn5-c5ccc(F)cc5F)cc3CCO4)cn2)CC1
< 1000 nM | O=C(c1nc2c(s1)CCOc1cc(-c3cn[nH]c3)ccc1-2)N1CCN(c2cnccn2)CC1
< 1000 nM | COCC(O)Cn1cc(-c2ccc3c(c2)OCCc2sc(-c4nc(C)nn4C(C)C)nc2-3)cn1 (stereo unspecified)
< 1000 nM | CC(C)n1ncnc1-c1nc2c(s1)CCOc1ccc(-c3ccc(N4CCCC4)nc3)cc1-2
< 1000 nM | Fc1ccc(-n2ncnc2-c2cc3c(s2)-c2nc(NC4CCOCC4)ccc2OCC3)c(F)c1
< 1000 nM | OCCCCc1ccc2c(n1)-c1sc(-c3ncnn3-c3ccc(F)cc3F)cc1CCO2
< 1000 nM | Cc1ncccc1-c1ccc2c(c1)-c1nc(C(=O)N(CCO)C(C)C)sc1CCO2
< 1000 nM | CC1(C)CCCN(C(=O)c2nc3c(s2)CCOc2cc(-c4cn[nH]c4)ccc2-3)C1
< 1000 nM | O=C(c1nc2c(s1)CCOc1cc(-c3cn[nH]c3)ccc1-2)N1CCCNCC1
< 1000 nM | Fc1ccc(-n2ncnc2-c2nc3c(s2)CCOc2cc(-c4cn[nH]c4)ccc2-3)c(F)c1
< 1000 nM | Cc1nc(-c2nc3c(s2)CCOc2cc(CNC(N)=O)ccc2-3)n(C(C)C)n1
< 1000 nM | CN(C)CCCc1ccc2c(n1)-c1sc(-c3ncnn3-c3ccc(F)cc3F)cc1CCO2
< 1000 nM | CC(C)n1ncnc1-c1nc2c(s1)CCOc1cc(C3CCN(CCS(=O)(=O)N(C)C)CC3)ccc1-2
< 1000 nM | CC(=O)N1CCC(N(CCO)C(=O)c2nc3c(s2)CCOc2cc(-c4cnn(CC(C)(C)O)c4)ccc2-3)CC1
< 1000 nM | CC(C)N(CCO)C(=O)c1nc2c(s1)CCOc1cc(-c3ccc(N4CCOCC4)nc3)ccc1-2
< 1000 nM | Cc1cc(-c2ccc3c(n2)-c2sc(-c4ncnn4-c4ccc(F)cc4F)cc2CCO3)cnc1N1CCN(C)CC1
< 1000 nM | CC(C)N1CC[C@H](CN(C)C(=O)c2nc3c(s2)CCOc2cc(-c4cn[nH]c4)ccc2-3)C1
< 1000 nM | CC(C)(O)Cn1cc(-c2ccc3c(c2)OCCc2sc(N4C(=O)OCC4(C)C)nc2-3)cn1

IC50 | Compound
< 1000 nM | CC(C)n1ncnc1-c1nc2c(s1)CCOc1cc(-c3cc[nH]c(=O)c3)ccc1-2
< 1000 nM | Cc1cnc(F)c(-c2ccc3c(c2)-c2nc(-c4ncnn4C(C)C)sc2CCO3)c1
< 1000 nM | CN(CCO)c1ccc2c(n1)-c1sc(-c3ncnn3-c3ccc(F)cc3F)cc1CCO2
< 1000 nM | CC(C)n1ncnc1-c1nc2c(s1)CCOc1cc(CN3CCC[C@H]3C(N)=O)ccc1-2
< 1000 nM | O=C(c1nc2c(s1)CCOc1cc(-c3cn[nH]c3)ccc1-2)N1CCN(C(=O)[C@H]2CCCO2)CC1
< 1000 nM | Cc1nc(-c2nc3c(s2)CCOc2cc(-c4ccccc4S(N)(=O)=O)ccc2-3)n(C(C)C)n1
< 1000 nM | CC(C)n1ncnc1-c1nc2c(s1)CCOc1cc(C3CN(CC(F)(F)F)C3)ccc1-2
< 1000 nM | CC(C)n1ccnc1-c1nc2c(s1)CCOc1cc(-c3cnn(CCO)c3)ccc1-2
< 1000 nM | COCC1CCN(C(=O)c2nc3c(s2)CCOc2cc(-c4cn[nH]c4)ccc2-3)CC1
< 1000 nM | CC(=O)N1CC2CC1CN2c1ccc2c(n1)-c1sc(-c3ncnn3-c3ccc(F)cc3F)cc1CCO2 (stereo unspecified)
< 1000 nM | Cc1nc(-c2nc3c(s2)CCOc2cc(CN)ccc2-3)n(C(C)C)n1
< 1000 nM | CN(C[C@@H](O)CO)C(=O)c1nc2c(s1)CCOc1cc(-c3cn[nH]c3)ccc1-2
< 1000 nM | CC(C)C(=O)N1CCN(C(=O)c2nc3c(s2)CCOc2cc(-c4cn[nH]c4)ccc2-3)CC1
< 1000 nM | Cc1nc(-c2nc3c(s2)CCOc2cc(C4CN(CCF)C4)ccc2-3)n(C(C)C)n1
< 1000 nM | CC(C)N(CCCO)C(=O)c1nc2c(s1)CCOc1cc(-c3cn[nH]c3)ccc1-2
< 1000 nM | CC(C)n1ncnc1-c1nc2c(s1)CCOc1cc(O[C@H](C)C(N)=O)ccc1-2
< 1000 nM | NC(=O)c1cnc2c(c1)OCCc1cc(-c3ccc[nH]c3=O)sc1-2
< 1000 nM | CC(C)(O)Cn1cc(-c2ccc3c(c2)OCCc2sc(-c4ncnn4CCN4CCOCC4)nc2-3)cn1
< 1000 nM | Cc1nc(-c2nc3c(s2)CCOc2cc(-c4cncn4CCO)ccc2-3)n(C(C)C)n1
< 1000 nM | O=C(NCC(F)F)c1ccc2c(c1)OCCc1sc(-c3ncnn3CC(F)(F)F)nc1-2
< 1000 nM | COCCn1ccc(-c2ccc3c(c2)-c2nc(-c4ncnn4C(C)C)sc2CCO3)cc1=O
< 1000 nM | C[C@@H]1CN(c2ccc3c(n2)-c2sc(-c4ncnn4-c4ccc(F)cc4F)cc2CCO3)C[C@H](C)N1CC(F)(F)F
< 1000 nM | CC(C)n1ncnc1-c1nc2c(s1)CCOc1cc(C3CN(C(=O)C4(N)CC4)C3)ccc1-2

IC50 | Compound
< 1000 nM | CC(C)n1ncnc1-c1nc2c(s1)CCOc1cc(-c3cnn(C(C)(C)C(=O)NC4CN(C)C4)c3)ccc1-2
< 1000 nM | CC(C)n1ncnc1-c1cc2c(s1)-c1ccc(-c3cnn(CCO)c3)cc1OCC2
< 1000 nM | O=C(c1nc2c(s1)CCOc1cc(-c3cn[nH]c3)ccc1-2)N1CCN(c2ccccn2)CC1
< 1000 nM | CC(C)n1ncnc1-c1nc2c(s1)CCOc1ccc(-c3ccc(S(N)(=O)=O)cc3)cc1-2
< 1000 nM | CC(C)n1ncnc1-c1nc2c(s1)CCOc1ccc(-c3cccn(CC(N)=O)c3=O)cc1-2
< 1000 nM | COc1ccncc1-c1ccc2c(c1)-c1nc(-c3ncnn3C(C)C)sc1CCO2
< 1000 nM | CN1CCC(CNc2ccc3c(n2)-c2sc(-c4ncnn4-c4ccc(F)cc4F)cc2CCO3)CC1
< 1000 nM | CN(C[C@H]1Cc2ccccc2O1)C(=O)c1nc2c(s1)CCOc1cc(-c3cn[nH]c3)ccc1-2
< 1000 nM | CC(=O)N1CCC(Nc2ccc3c(n2)-c2sc(-c4ncnn4-c4ccc(F)cc4F)cc2CCO3)CC1
< 1000 nM | CN(C)C1CCN(C(=O)c2nc3c(s2)CCOc2cc(-c4cn[nH]c4)ccc2-3)CC1
< 1000 nM | CC(C)N1CC(c2ccc3c(c2)OCCc2sc(-c4ncnn4C(C)C)nc2-3)C1
< 1000 nM | O=C(c1ccccc1)N1CCN(C(=O)c2nc3c(s2)CCOc2cc(-c4cn[nH]c4)ccc2-3)CC1
< 1000 nM | O=C(c1nc2c(s1)CCOc1cc(-c3cn[nH]c3)ccc1-2)N1CCN(c2cccnc2)CC1
< 1000 nM | CNC(=O)Cn1ccnc1-c1nc2c(s1)CCOc1cc(-c3cnn(CC(C)(C)O)c3)ccc1-2
< 1000 nM | Fc1ccc(-n2ncnc2-c2cc3c(s2)-c2nc(-c4ccc(N5CCCCC5)nc4)ccc2OCC3)c(F)c1
< 1000 nM | CC(O)C(=O)N1CC(n2cc(-c3ccc4c(c3)OCCc3sc(-c5ncnn5C(C)C)nc3-4)cn2)C1 (stereo unspecified)
< 1000 nM | Nc1nc(-c2cc3c(s2)-c2ccc(C(=O)NC4COC4)cc2OCC3)n(-c2ccc(F)cc2F)n1
< 1000 nM | O=C(c1nc2c(s1)CCOc1cc(-c3cn[nH]c3)ccc1-2)N1CCC[C@@H](O)C1
< 1000 nM | O=C(c1nc2c(s1)CCOc1cc(-c3cn[nH]c3)ccc1-2)N1CCC(O)CC1
< 1000 nM | CC(C)n1ncnc1-c1nc2c(s1)CCOc1cc(C3CN(CCS(=O)(=O)N4CC(F)(F)C4)C3)ccc1-2
< 1000 nM | CC(=O)N1CCCN(c2ccc3c(n2)-c2sc(-c4ncnn4-c4ccc(F)cc4F)cc2CCO3)CC1
< 1000 nM | CN(CCO)C(=O)c1ccc(Cl)c(N(C)C(=O)c2cc3c(s2)-c2ccc(C(=O)NCCS(C)(=O)=O)cc2OCC3)c1
< 1000 nM | CC(C)n1ncnc1-c1nc2c(s1)CCOc1cc(C3CCN(CC(=O)NC(C)(C)C)CC3)ccc1-2

IC50 | Compound
< 1000 nM | CC(C)n1ncnc1-c1nc2c(s1)CCOc1ccc(C3CN(CC(C)(C)O)C3)cc1-2
< 1000 nM | CC(C)n1ncnc1-c1nc2c(s1)CCOc1ccc(-c3ccn(C)c(=O)c3)cc1-2
< 1000 nM | CC(C)n1ncnc1-c1nc2c(s1)CCOc1ccc(-c3ccc(N4CCOCC4)nc3)cc1-2
< 1000 nM | C[C@H]1COCCN1C(=O)c1nc2c(s1)CCOc1cc(-c3cn[nH]c3)ccc1-2
< 1000 nM | CC(O)Cn1ncnc1-c1nc2c(s1)CCOc1cc(-c3cnn(CC(C)(C)O)c3)ccc1-2 (stereo unspecified)
< 1000 nM | N#C[C@@H]1CCCN1C(=O)c1nc2c(s1)CCOc1cc(-c3cn[nH]c3)ccc1-2
< 1000 nM | CC(C)N(CCO)C(=O)c1nc2c(s1)CCOc1ccc(-c3cnn(CCO)c3)cc1-2
< 1000 nM | CC(C)n1ncnc1-c1nc2c(s1)CCOc1cc(-c3cnn(CCOP(=O)(O)O)c3)ccc1-2
< 1000 nM | Cc1nc(-c2nc3c(s2)CCOc2cc(CNS(C)(=O)=O)ccc2-3)n(C(C)C)n1
< 1000 nM | OCCNc1ccc2c(n1)-c1sc(-c3ncnn3-c3ccc(F)cc3F)cc1CCO2
< 1000 nM | CN1CCN(C(=O)c2nc3c(s2)CCOc2cc(-c4cn[nH]c4)ccc2-3)CC1
< 1000 nM | CC(C)n1ncnc1-c1nc2c(s1)CCOc1cc(C3CCN(C(C)(C)C(N)=O)CC3)ccc1-2
< 1000 nM | CC(C)n1ncnc1-c1nc2c(s1)CCOc1ccc(C(O)C(F)(F)F)cc1-2 (stereo unspecified)
< 1000 nM | CC(C)n1nc(CO)nc1-c1nc2c(s1)CCOc1ccccc1-2
< 1000 nM | CN(C)C(=O)CNc1ccc2c(n1)-c1sc(-c3ncnn3-c3ccc(F)cc3F)cc1CCO2
< 1000 nM | CN(C)CCN(C(=O)c1nc2c(s1)CCOc1cc(-c3cnn(CC(C)(C)O)c3)ccc1-2)C1CCCCC1
< 1000 nM | Cc1nc(-c2nc3c(s2)CCOc2cc(-c4cn(CCO)cn4)ccc2-3)n(C(C)C)n1
< 1000 nM | Cc1cc(-c2ccc3c(n2)-c2sc(-c4ncnn4-c4ccc(F)cc4F)cc2CCO3)cnc1N1CCOCC1
< 1000 nM | FC(F)(F)Cn1ncnc1-c1nc2c(s1)CCOc1cc(-c3ccc(NCCN4CCOCC4)nc3)ccc1-2
< 1000 nM | COc1cc(C)c(-c2ccc3c(n2)-c2sc(-c4ncnn4-c4ccc(F)cc4F)cc2CCO3)cn1
< 1000 nM | CS(=O)(=O)CCNc1ccc(-c2ccc3c(n2)-c2sc(-c4ncnn4-c4ccc(F)cc4F)cc2CCO3)cn1
< 1000 nM | Cc1nc(-c2nc3c(s2)CCOc2cc(-c4cnn(C5CN(CCO)C5)c4)ccc2-3)n(C(C)C)n1
